Experimental data from patent US8293705B2, “HCV protease inhibitors and uses thereof” (Avila Therapeutics, Inc., priority 2007, dated 2012).

Legend:
[1] = biological target: T1, HCV NS3/4A 1b protease A156T (Hepatitis C virus genotype 1b, UniProt Q9WMX2, A1182T); assay: HCV protease FRET assay (IC50), Example 15; format: biochemical
T1 construct: 10× stocks of NS3/4A protease enzyme from Bioenza (Mountain View, Calif.); purchased Bioenza (Mountain View, Calif.)
Procedure: (§1) The following protocol was used to generate IC50 values as depicted for compound 239 in Table 4, above. The protocol is a modified FRET-based assay (v—02) from In Vitro Resistance Studies of HCV Serine Protease Inhibitors, 2004, JBC, vol. 279, No. 17, pp 17508-17514.
(§2) 10× stocks of NS3/4A protease enzyme from Bioenza (Mountain View, Calif.) and 1.13× 5-FAM/QXL™520 FRET peptide substrate from Anaspec (San Jose, Calif.) were prepared in 50 mM HEPES, pH 7.8, 100 mM NaCl, 5 mM DTT and 20% glycerol. 5 μL of each enzyme were pre-incubated in a Corning (#3573) 384-well, black, non-treated microtiter plate (Corning, N.Y.) for 30 min at 25° C. with a 0.5 μL volume of 50% DMSO and serially diluted compounds prepared in 50% DMSO. Protease reactions were started with the addition of 45 μL of the FRET substrate and monitored for 120 minutes at λex487/λem514 through Quad^4 monochromoters in a Synergy^4 plate reader from BioTek (Winooski, Vt.). At the conclusion of each assay, progress curves from each well were examined for linear reaction kinetics and fit statistics (R^2, absolute sum of squares). Initial velocity (0 minutes to 30+ minutes) from each reaction was determined from the slope of a plot of relative fluorescence units vs time (minutes) and then plotted against inhibitor concentration to estimate IC50 from log [Inhibitor] vs Response, Variable Slope model in GraphPad Prism from GraphPad Software (San Diego, Calif.).
(§3) The compound numbers correspond to the compound numbers in Table 3. […] ;

[2] = biological target: T2, HCV NS3/4A 1b protease wild type (Hepatitis C virus genotype 1b, UniProt Q9WMX2); assay: HCV protease FRET assay (IC50), Example 15; format: biochemical
T2 construct: 10× stocks of NS3/4A protease enzyme from Bioenza (Mountain View, Calif.); purchased Bioenza (Mountain View, Calif.)
Procedure: as §1, §2, §3

[3] = biological target: T3, HCV NS3/4A 1b protease D168A (Hepatitis C virus genotype 1b, UniProt Q9WMX2, D1194A); assay: HCV protease FRET assay (IC50), Example 15; format: biochemical
T3 construct: 10× stocks of NS3/4A protease enzyme from Bioenza (Mountain View, Calif.); purchased Bioenza (Mountain View, Calif.)
Procedure: as §1, §2, §3

[4] = test system: HCV RNA replicon in cell line ET (luc-ubi-neo/ET), human Huh7 hepatoma; assay: HCV RNA replicon assay, Example 14 Method A; format: cell-based; conditions: Hepatitis C virus, Huh-7, assay of Example 14, 72 hr; for IC50: read-out: Inhibition, Replicon (IC50); for IC90: read-out: Inhibition, Replicon, IC90 value
Procedure: The compounds were assayed to evaluate the antiviral activity and cytotoxicity of compounds in vitro using HCV RNA replicons. This assay used the cell line ET (luc-ubi-neo/ET), which is a human Huh7 hepatoma cell line that contains an HCV RNA replicon with a stable luciferase (Luc) reporter and three cell culture-adaptive mutations. […]
The ET cell line was grown in Dulbecco's modified essential media (DMEM), 10% fetal bovine serum (FBS), 1% penicillin-streptomycin (pen-strep), 1% glutamine, 250 μg/mL G418 in a 5% CO2 incubator at 37° C. All cell culture reagents were obtained from Mediatech (Manassas, Va.). Cells were trypsinized (1% trypsin:EDTA) and plated out at 5×10^3 cells/well in white 96-well assay plates (Costar) dedicated to cell number (cytotoxicity) or antiviral activity assessments. Drugs were added at six 3-fold concentrations each and the assay was run in DMEM, 5% FBS, 1% pen-strep, 1% glutamine. Human interferon alpha-2b (PBL Biolabs, New Brunswick, N.J.) was included in each run as a positive control compound. Cells were processed 72 hr post drug addition when the cells are still subconfluent. Antiviral activity was measured by analyzing replicon-derived luciferase activity using the Steady-Glo Luciferase Assay System (Promega, Madison, Wis.) according to manufacturer's instruction. The number of cells in each well was determined by CytoTox-1 reagent (Promega). Compound profile was derived by calculating applicable EC50 (effective concentration inhibiting virus replication by 50%), EC90 (effective concentration inhibiting virus replication by 90%), IC50 (concentration decreasing cell viability by 50%) and SI50 (selective index: […]) values.

HCV NS3/4A wild type = biological target: T4, HCV NS3/4A wild type (Hepatitis C virus genotype 1b, UniProt Q9WMX2); assay: Mass spectrometric analysis of covalent modification (MALDI-TOF); format: binding; conditions: 10× excess of test compound to protein
T4 construct: HCV NS3/4A wild type (wt) was incubated for 1 hr at a 10× fold access of test compound to protein; purchased Bioenza, Calif
Procedure, shortened: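 HCV NS3/4A protease (100 pmol wild type; C159S mutant as comparison) incubated with 10-fold molar excess of compound for 1 and 3 h. Samples acidified in 0.1% TFA, C4 ZipTip-desalted, analysed by MALDI-TOF intact-mass measurement in linear mode, sinapinic acid matrix.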

[5] = biological target: T1, HCV NS3/4A 1b protease A156T; assay: HCV protease FRET assay (IC50_APP), Example 16; format: biochemical
[6] = biological target: T2, HCV NS3/4A 1b protease wild type; assay: HCV protease FRET assay (IC50_APP), Example 16; format: biochemical
[7] = biological target: T3, HCV NS3/4A 1b protease D168A; assay: HCV protease FRET assay (IC50_APP), Example 16; format: biochemical
HCV NS3•4A protease WT = HCV NS3•4A protease WT (Hepatitis C virus genotype 1b, UniProt Q9WMX2); assay: cell-based
[8] = biological target: T5, HCV NS3/4A mutant R155K protease (Hepatitis C virus genotype 1b, UniProt Q9WMX2, R1181K); assay: Mass spectrometric analysis of covalent modification (MALDI-TOF); format: binding; conditions: 3 hours, 10× excess of compound
T5 construct: mass spectroscopic analysis of HCV NS3/4A mutant R155K protease in the presence of test compound I-11
Procedure: (§4) As depicted in FIGS. 4, 5, 6, and 7, mass spectrometric analysis of HCV mutants in the presence of compound I-11 was performed. […] 2 ul aliquots of the samples were diluted with 10 ul of 0.1% TFA prior to micro C4 ZipTipping directly onto the MALDI target using Sinapinic acid as the desorption matrix (10 mg/ml in 0.1% TFA:Acetonitrile 50:50). For intact protein mass measurement the instrument was set in linear mode using a pulsed extraction setting of 24,500 and apomyoglobin as the standard to calibrate the instrument.

[9] = biological target: T6, HCV NS3/4A mutant A156T protease (Hepatitis C virus genotype 1b, UniProt Q9WMX2, A1182T); assay: as above; format: binding; conditions: 3 hours, 10× excess of compound
T6 construct: mass spectroscopic analysis of HCV NS3/4A mutant A156T protease in the presence of test compound I-11
Procedure: as §4

[10] = biological target: T7, HCV NS3/4A 1b protease R155K (Hepatitis C virus genotype 1b, UniProt Q9WMX2, R1181K); assay: HCV protease FRET assay (IC50_APP), Example 16; format: biochemical; conditions: reaction started immediately after enzyme addition, read-out: Inhibition (apparent IC50, IC50_APP), HCV R155K
T7 construct: 10× stocks of NS3/4A protease enzyme from Bioenza (Mountain View, Calif.); purchased Bioenza (Mountain View, Calif.)

[11] = test system: HCV RNA replicon in cell line ET (luc-ubi-neo/ET), human Huh7 hepatoma; assay: Replicon luciferase assay, Example 26; format: cell-based; conditions: Hepatitis C virus, Huh-7, assay of Example 26, 72 hr
Procedure: The compounds were assayed to evaluate the antiviral activity and cytotoxicity of compounds using replicon-derived luciferase activity. This assay used the cell line ET (luc-ubi-neo/ET), which is a human Huh7 hepatoma cell line that contains an HCV RNA replicon with a stable luciferase (Luc) reporter and cell culture-adaptive mutations. The ET cell line was grown in a 5% CO2 incubator at 37° C. in Dulbecco's modified essential media (DMEM) supplemented with 2 mM L-glutamine, nonessential amino acids, 100 U of penicillin/ml, 100 μg of streptomycin/mL, and 10% fetal bovine serum. G418 (Geneticin; Invitrogen) was added at a final concentration of 400 ug//mL.
All cell culture reagents were obtained from Invitrogen (Carlsbad). Cells were trypsinized (1% trypsin:EDTA) and plated out at 5×10^3 cells/well in white 96-well assay plates (Costar) dedicated to cell number (cytotoxicity) or antiviral activity assessments. Test compounds were added at six 3-fold concentrations each and the assay was run in DMEM, 5% FBS, 1% pen-strep, 1% glutamine, 1% non essential amino acid. Human interferon alpha-2b (PBL Biolabs, New Brunswick, N.J.) was included in each run as a positive control compound. Cells were processed 72 hr post test compound addition when the cells were still subconfluent. Antiviral activity was measured by analyzing replicon-derived luciferase activity using the Steady-Glo Luciferase Assay System (Promega, Madison, Wis.) according to manufacturer's instruction. The number of cells in each well was determined by Cell Titer Blue Assay (Promega). Compound profile was derived by calculating applicable EC50 (effective concentration inhibiting virus replication by 50%), EC90 (effective concentration inhibiting virus replication by 90%), IC50 (concentration decreasing cell viability by 50%) and SI50 (selective index: […]) values.

[12] = biological target: T8, NS3 protease self-cleavage in Huh-7-Luc-Neo-ET replicon cells (Hepatitis C virus genotype 1b, UniProt Q9WMX2, E1202G/T1280I); assay: Inhibition of protease self cleavage in replicon cells (washout); format: cell-based; conditions: 16 hours continuous exposure
T8 construct: blotted with polyclonal anti NS3 antibody (Bioenza, Calif.)
Procedure: Huh-7-Luc-Neo-ET cells were plated in Replicon Assay Medium (RPMI supplemented with 5% FBS, 1× non-essential amino acids and pen/strep) at a density of 1×10^5 cells/well in 12 well plates. Eight hours later the media was removed and replaced with 1 ml media containing test compound (5 wells per compound) and 0.02% DMSO and the cells were returned to the incubator overnight. Sixteen hours later 1 well from each compound and 1 untreated well were washed with PBS, then lysed and scraped into 30 ul of Cell Extraction Buffer (Biosource, Camarillo, Calif.) plus Complete Protease Inhibitor (Roche, Indianapolis, Ind.). The remaining wells were rinsed 2× with PBS then fed with Replicon Media and returned to the incubator. […]
Cell lysates were separated by SDS-Page (4-20%) and transferred to Immobilon-P PVDF membrane (Millipore Corporation, MA) and blotted with polyclonal anti NS3 antibody (Bioenza, Calif.). Blots were scanned on an Odyssey infrared scanner from Licor and the FL band and cleavage products were quantified separately using the Licor software provided with the scanner. The cleavage product was calculated as a percentage of the total NS3 in each sample and then normalized to the DMSO control so that the DMSO control reflects 100% activity.

[13] = Inhibition (IC50), HCV D168A, FRET, 30 min pre-incubation at 25° C.

Row | SMILES | IC50 ([1]; Comparative IC50 Values, A156T, biochemical assay, applicant's compound) | IC50 ([1]; Inhibition (IC50), HCV A156T, FRET, 30 min pre-incubation at 25° C.) | IC50 [2] | IC50 ([3]; Comparative IC50 Values, D168A, biochemical assay, applicant's compound) | IC50 [3, 13] | IC50 [4] | IC90 [4] | Covalent modification of HCV NS3/4A wild type (HCV NS3/4A wild type; MALDI-TOF) | Mass increase of new protein species vs protein with no compound (HCV NS3/4A wild type; 1 hr) | IC50 [5] | IC50 [6] | IC50 [7] | IC50 (HCV NS3•4A protease WT) | Conversion of HCV (R155K) mutant to compound adduct [8] | Conversion of HCV (A156T) mutant to compound adduct [9] | IC50 [10] | EC50 ([11]; read-out: Inhibition, Replicon, EC50 value) | EC90 ([11]; read-out: Inhibition, Replicon, EC90 value) | NS3 internal self-cleavage products after treatment of replicon cells [12]
1 | C=CC(=O)NC[C@H](NC(=O)OC(C)(C)C)C(=O)N1C[C@H](OC(=O)N2Cc3cccc(F)c3C2)C[C@H]1C(=O)N[C@]1(C(=O)NS(=O)(=O)C2CC2)C[C@H]1C=C [Compound I-1, (3R,5S)-1-((S)-3-acrylamido-2-(tert-butoxycarbonylamino)propanoyl)-5-((1R,2S)-1-(cyclopropylsulfonylcarbamoyl)-2-vinylcyclopropylcarbamoyl)pyrrolidin-3-yl 4-fluoroisoindoline-2-carboxylate] | 0.003 µM | < 0.01 µM | < 0.01 µM | 0.008 µM | < 0.01 µM | 0.01 to 0.1 µM | 0.01 to 0.1 µM | reacted significantly | approximately 751 Da | 0.01 to 0.1 µM | < 0.01 µM | 0.1 to 1 µM | 0.00066 µM | – | – | – | – | – | –
2 | C=CC(=O)N(C)C[C@H](NC(=O)OC(C)(C)C)C(=O)N1C[C@H](OC(=O)N2Cc3cccc(F)c3C2)C[C@H]1C(=O)N[C@]1(C(=O)NS(=O)(=O)C2CC2)C[C@H]1C=C [Compound I-11, (3R,5S)-1-((S)-2-(tert-butoxycarbonylamino)-3-(N-methylacrylamido)propanoyl)-5-((1R,2S)-1-(cyclopropylsulfonylcarbamoyl)-2-vinylcyclopropylcarbamoyl)pyrrolidin-3-yl 4-fluoroisoindoline-2-carboxylate] | – | – | < 0.01 µM | – | 0.01 to 0.1 µM | < 0.01 µM | 0.01 to 0.1 µM | – | – | < 0.01 µM | < 0.01 µM | 0.01 to 0.1 µM | – | good conversion | complete conversion | 0.01 to 0.1 µM | – | – | –
3 | CC(C)(C)OC(=O)N[C@H]1CN(C(=O)CCl)CCC/C=C\[C@@H]2C[C@@]2(C(=O)NS(=O)(=O)C2CC2)NC(=O)[C@@H]2CC(OC(=O)N3Cc4cccc(F)c4C3)CN2C1=O (some centres unmarked) [Compound I-47] | – | – | – | – | – | – | – | – | – | – | < 0.01 µM | 0.01 to 0.1 µM | – | – | – | 0.01 to 0.1 µM | 0.01 to 0.1 µM | 0.1 to 1 µM | inhibited
